For the assay, the target named is vanilloid receptor 1 (VR1/TRPV1) (Homo sapiens (Human), UniProt Q8NER1). The assay can be described thus: FLIPR assay, Ca2+ influx in CHO K1 cells transfected with the human VR1 gene. It is filed as cell-based. The note with it: for compound-alone effect on Ca2+ influx (agonist / partial agonist): compound 5 μM, % activation compared with control capsaicin 10 μM; for Ki: displacement of capsaicin 100 nM, Ki from IC50 by Cheng-Prusoff equation, read-out: (f) Ki (human) [nM] Cap. The method, then:
Furthermore, preference may be given to compounds according to the first aspect of the invention that cause a 50% displacement of capsaicin, which is present at a concentration of 100 nM, in a FLIPR assay with CHO K1 cells which were transfected with the human VR1 gene at a concentration of less than 2 000 nM, preferably less than 1 000 nM, particularly preferably less than 300 nM, most particularly preferably less than 100 nM, even more preferably less than 75 nM, additionally preferably less than 50 nM, most preferably less than 10 nM. In the process, the Ca^2+ influx is quantified in the FLIPR assay with the aid of a Ca^2+-sensitive dye (type Fluo-4, Molecular Probes Europe BV, Leiden, the Netherlands) in a fluorescent imaging plate reader (FLIPR, Molecular Devices, Sunnyvale, USA), as described hereinafter.
The FLIPR protocol consists of 2 substance additions during a kinetic measurement. First the compounds to be tested (5 μM) are pipetted onto the cells and the Ca^2+ influx is determined in comparison to the control (capsaicin 10 μM), providing the result as % activation and representing the compound-alone effect (calculation at peak signal related to baseline). […] After 5 min incubation, the Ca^2+ influx is related to an injection of 100 nM of capsaicin and thereby the antagonistic effect of the test compounds detected.
Desensitising agonists and antagonists lead to suppression of the Ca^2+ influx. The % inhibition is calculated compared to the maximum achievable inhibition with 10 μM of capsaicin. Triple analyses (n=3) are carried out and repeated in at least 3 independent experiments.
Starting from the percentage displacement caused by different concentrations of the compounds to be tested of general formula I, IC50 inhibitory concentrations which cause a 50-% displacement of capsaicin were calculated. Ki values for the test substances were obtained by conversion by means of the Cheng-Prusoff equation (Cheng, Prusoff; Biochem. Pharmacol. 22, 3099-3108, 1973).
Chinese hamster ovary cells (CHO K1 cells, European Collection of Cell Cultures (ECACC) United Kingdom) are stably transfected with the VR1 gene. For functional testing, these cells are plated out on poly-D-lysine-coated black 96-well plates having a clear base (BD Biosciences, Heidelberg, Germany) at a density of 25,000 cells/well. The cells are incubated overnight at 37° C. and 5% CO2 in a culture medium (Ham's F12 nutrient mixture, 10% by volume of FCS (foetal calf serum), 18 μg/ml of L-proline). The next day the cells are incubated with Fluo-4 (Fluo-4 2 μM, 0.01% by volume of Pluronic F127, Molecular Probes in HBSS (Hank's buffered saline solution), Gibco Invitrogen GmbH, Karlsruhe, Germany) for 30 min at 37° C. Subsequently, the plates are washed three times with HBSS buffer and after further incubation for 15 min at RT used for Ca^2+ measurement in a FLIPR assay. The Ca^2+-dependent fluorescence is measured before and after the addition of the substances to be tested (λex wavelength=488 nm, λem=540 nm). Quantification is carried out by measuring the highest fluorescence intensity (FC, fluorescence counts) over time.

Where a name gives a salt, the structure may show the parent alone.

The values that follow come from patent publication US9771359B1, “Substituted oxazole- and thiazole-based carboxamide and urea derivatives as vanilloid receptor ligands II” (MEDIFRON DBT INC., priority 2014, dated 2017).

What is called Ki is a measure of affinity in units of concentration, obtained from inhibition or displacement. Broadly, the inhibition is the relative decrease from the control value, in per cent.

vanilloid receptor 1 (VR1/TRPV1), sequence (Q8NER1 whole entry): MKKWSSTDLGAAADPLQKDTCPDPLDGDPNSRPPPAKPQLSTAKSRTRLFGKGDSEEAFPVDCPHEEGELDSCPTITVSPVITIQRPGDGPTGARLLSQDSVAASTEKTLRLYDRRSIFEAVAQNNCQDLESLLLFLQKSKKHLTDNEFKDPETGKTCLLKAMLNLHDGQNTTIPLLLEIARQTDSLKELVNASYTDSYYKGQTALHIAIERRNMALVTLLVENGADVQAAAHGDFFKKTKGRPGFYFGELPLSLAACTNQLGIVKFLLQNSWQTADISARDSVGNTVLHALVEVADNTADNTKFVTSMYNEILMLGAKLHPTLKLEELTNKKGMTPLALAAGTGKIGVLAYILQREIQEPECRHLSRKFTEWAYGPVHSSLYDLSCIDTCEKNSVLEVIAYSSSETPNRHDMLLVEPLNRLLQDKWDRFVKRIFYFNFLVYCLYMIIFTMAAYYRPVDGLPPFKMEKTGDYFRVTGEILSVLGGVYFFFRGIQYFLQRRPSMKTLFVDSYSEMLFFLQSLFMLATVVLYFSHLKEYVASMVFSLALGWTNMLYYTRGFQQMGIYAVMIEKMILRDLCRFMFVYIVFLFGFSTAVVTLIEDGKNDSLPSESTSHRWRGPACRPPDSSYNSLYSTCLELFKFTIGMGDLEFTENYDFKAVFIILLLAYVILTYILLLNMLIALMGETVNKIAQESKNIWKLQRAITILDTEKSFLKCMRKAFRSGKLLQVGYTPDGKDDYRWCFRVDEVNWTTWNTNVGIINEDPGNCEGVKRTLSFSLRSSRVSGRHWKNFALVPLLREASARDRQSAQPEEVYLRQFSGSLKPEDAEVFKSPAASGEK

As to `CC(C(=O)NCc1oc(C(F)(F)F)nc1-c1cccc(Cl)c1)c1cnc(CO)c(F)c1` (stereo not drawn) [EX-21, N-((4-(3-chlorophenyl)-2-(trifluoromethyl)oxazol-5-yl)methyl)-2-(5-fluoro-6-(hydroxymethyl)pyridin-3-yl)propanamide], for the setting “inhibition <10% @5 μM”, the “(f) Ki (human) Cap: no effect” value is “ne (ne=no effect (<10% @5 μM))”.

Turning to `CC(C(=O)NCc1sc(C(F)(F)F)nc1-c1cccc(Cl)c1)c1ccc(C2(O)COC2)cc1` (stereo not drawn) [EX-10, N-((4-(3-chlorophenyl)-2-(trifluoromethyl)thiazol-5-yl)methyl)-2-(4-(3-hydroxyoxetan-3-yl)phenyl)propanamide], the “compound-alone effect on Ca2+ influx (agonist / partial agonist)” value is “pAG (A Ca^2+ influx of 10%-60% reveals a partial agonist (pAG))” and the Ki came to 8.8 nM.

In the case of `CC(C)(C)c1nc(-c2cccc(Cl)c2)c(CNC(=O)Nc2ccc(CO)c(F)c2)s1` [EX-59, 1-((2-(tert-butyl)-4-(3-chlorophenyl)thiazol-5-yl)methyl)-3-(3-fluoro-4-(hydroxymethyl)phenyl)urea], the “compound-alone effect on Ca2+ influx (agonist / partial agonist)” value is on record as “pAG (A Ca^2+ influx of 10%-60% reveals a partial agonist (pAG))” and the Ki is 1.1 nM.

Consider `CC(C)(C)c1nc(-c2cccc(Cl)c2)c(CNC(=O)Nc2ccc3c(c2)CCC3)s1` [EX-55, 1-((2-(tert-butyl)-4-(3-chlorophenyl)thiazol-5-yl)methyl)-3-(2,3-dihydro-1H-inden-5-yl)urea], for which the Ki was found to be 12.3 nM.

Regarding `Cc1cccc(-c2nc(C(C)(C)C)sc2CNC(=O)Nc2ccc(CO)c(F)c2)c1` [EX-60, 1-((2-(tert-butyl)-4-(m-tolyl)thiazol-5-yl)methyl)-3-(3-fluoro-4-(hydroxymethyl)phenyl)urea], the “compound-alone effect on Ca2+ influx (agonist / partial agonist)” value was “pAG (A Ca^2+ influx of 10%-60% reveals a partial agonist (pAG))” and the inhibition constant (Ki) is 3.2 nM.

For `CC(C(=O)NCc1oc(C(F)(F)F)nc1-c1cccc(Cl)c1)c1ccc(NCCO)nc1` (single isomer, unassigned) [EX-17, N-((4-(3-chlorophenyl)-2-(trifluoromethyl)oxazol-5-yl)methyl)-2-(6-((2-hydroxyethyl)amino)pyridin-3-yl)propanamide], the inhibitory constant (Ki) was determined as 0.7 nM.

Regarding `O=C(NCc1oc(C(F)(F)F)nc1-c1cccc(Cl)c1)Nc1ccc(N2CC(O)C2)nc1` [EX-32, 1-((4-(3-chlorophenyl)-2-(trifluoromethyl)oxazol-5-yl)methyl)-3-(6-(3-hydroxyazetidin-1-yl)pyridin-3-yl)urea], the inhibition constant (Ki) is 60.8 nM.

As to `CC(C)(C)c1nc(-c2cccc(Cl)c2)c(CNC(=O)Nc2ccc(CNS(C)(=O)=O)c(F)c2)s1` [EX-57, N-(4-(3-((2-(tert-butyl)-4-(3-chlorophenyl)thiazol-5-yl)methyl)ureido)-2-fluorobenzyl)methanesulfonamide], the Ki amounted to 6.6 nM.

`O=C(NCc1oc(C(F)(F)F)nc1-c1cccc(Cl)c1)Nc1ccc(COCCO)nc1` [EX-48, 1-((4-(3-chlorophenyl)-2-(trifluoromethyl)oxazol-5-yl)methyl)-3-(6-((2-hydroxyethoxy)methyl)pyridin-3-yl)urea dihydrochloride]: the inhibition at 5 µM (CHO-K1, @5 μM test compound, capsaicin 100 nM, read-out: inhibition (as a percentage), Cap) was 31%.

Take `CC(C(=O)NCc1oc(C(F)(F)F)nc1-c1cccc(Cl)c1)c1ccc(C2(O)COC2)cc1` (stereo not drawn) [EX-09, N-((4-(3-chlorophenyl)-2-(trifluoromethyl)oxazol-5-yl)methyl)-2-(4-(3-hydroxyoxetan-3-yl)phenyl)propanamide]: the “compound-alone effect on Ca2+ influx (agonist / partial agonist)” value is listed as “pAG (A Ca^2+ influx of 10%-60% reveals a partial agonist (pAG))” and the Ki came out at 73.8 nM.

Consider `O=C(NCc1sc(C(F)(F)F)nc1-c1cccc(Cl)c1)Nc1ccc(CO)nc1` [EX-28, 1-((4-(3-chlorophenyl)-2-(trifluoromethyl)thiazol-5-yl)methyl)-3-(6-(hydroxymethyl)pyridin-3-yl)urea], for which the Ki is 19.4 nM.

For the molecule `CC(C(=O)NCc1sc(C(F)(F)F)nc1-c1cccc(Cl)c1)c1ccc(CCO)c(F)c1` (stereo not drawn) [EX-01, N-((4-(3-chlorophenyl)-2-(trifluoromethyl)thiazol-5-yl)methyl)-2-(3-fluoro-4-(2-hydroxyethyl)phenyl)-propanamide], the Ki worked out at 1.4 nM.

In the case of `O=C(NCc1sc(C(F)(F)F)nc1-c1cccc(Cl)c1)Nc1ccc(CCO)nc1` [EX-34, 1-((4-(3-chlorophenyl)-2-(trifluoromethyl)thiazol-5-yl)methyl)-3-(6-(2-hydroxyethyl)pyridin-3-yl)urea], the “compound-alone effect on Ca2+ influx (agonist / partial agonist)” value is “pAG (A Ca^2+ influx of 10%-60% reveals a partial agonist (pAG))” and the Ki was found to be 30.2 nM.

For `CC(C(=O)NCc1sc(C(F)(F)F)nc1-c1cccc(Cl)c1)c1ccc(CNS(N)(=O)=O)cc1` (stereo not drawn) [EX-06, N-((4-(3-chlorophenyl)-2-(trifluoromethyl)thiazol-5-yl)methyl)-2-(4-((sulfamoylamino)methyl)-phenyl)propanamide], the inhibition constant Ki came to 0.7 nM.

For `CC(C(=O)NCc1sc(C(F)(F)F)nc1-c1cccc(Cl)c1)c1ccc(NCCO)nc1` (single isomer, unassigned) [EX-16, N-((4-(3-chlorophenyl)-2-(trifluoromethyl)thiazol-5-yl)methyl)-2-(6-((2-hydroxyethyl)amino)pyridin-3-yl)propanamide], the Ki is 41.9 nM.

`Cc1cccc(-c2nc(C(C)(C)C)sc2CNC(=O)Nc2ccc(CNS(C)(=O)=O)c(F)c2)c1` [EX-58, N-(4-(3-((2-(tert-butyl)-4-(m-tolyl)thiazol-5-yl)methyl)ureido)-2-fluorobenzyl)methanesulfonamide]: the Ki is 2.3 nM.

As for `O=C(NCc1oc(C(F)(F)F)nc1-c1cccc(Cl)c1)Nc1ccc(CO)nc1` [EX-27, 1-((4-(3-chlorophenyl)-2-(trifluoromethyl)oxazol-5-yl)methyl)-3-(6-(hydroxymethyl)pyridin-3-yl)urea], the inhibitory constant (Ki) turned out to be 62.5 nM.

For `CC(C(=O)NCc1sc(C(C)(C)C)nc1-c1cccc(Cl)c1)c1ccc(CO)c(F)c1` (stereo not drawn) [EX-07, N-((2-(tert-butyl)-4-(3-chlorophenyl)thiazol-5-yl)methyl)-2-(3-fluoro-4-(hydroxymethyl)phenyl)propanamide], the “compound-alone effect on Ca2+ influx (agonist / partial agonist)” value was “AG (a Ca^2+ influx of >60% relates to a pure agonist (AG))”.

Regarding `CC(C)(C)c1nc(-c2cccc(Cl)c2)c(CNC(=O)Nc2ccc(CO)nc2)s1` [EX-26, 1-((2-(tert-butyl)-4-(3-chlorophenyl)thiazol-5-yl)methyl)-3-(6-(hydroxymethyl)pyridin-3-yl)urea], the “compound-alone effect on Ca2+ influx (agonist / partial agonist)” value is “pAG (A Ca^2+ influx of 10%-60% reveals a partial agonist (pAG))” and the Ki was found to be 10.2 nM.

As to `CC(C(=O)NCc1sc(C(F)(F)F)nc1-c1cccc(Cl)c1)c1ccc(NCCO)nc1` (stereo not drawn) [EX-14, N-((4-(3-chlorophenyl)-2-(trifluoromethyl)thiazol-5-yl)methyl)-2-(6-((2-hydroxyethyl)amino)pyridin-3-yl)propanamide], the Ki is 0.7 nM.

Regarding `CC(C)(C)c1nc(-c2cccc(Cl)c2)c(CNC(=O)Nc2ccc3cnccc3c2)s1` [EX-52, 1-((2-(tert-butyl)-4-(3-chlorophenyl)thiazol-5-yl)methyl)-3-(isoquinolin-6-yl)urea], the “compound-alone effect on Ca2+ influx (agonist / partial agonist)” value is recorded as “AG (a Ca^2+ influx of >60% relates to a pure agonist (AG))”.

Consider `CC(C(=O)NCc1oc(C(F)(F)F)nc1-c1cccc(Cl)c1)c1ccc(CCO)c(F)c1` (stereo not drawn) [EX-02, N-((4-(3-chlorophenyl)-2-(trifluoromethyl)oxazol-5-yl)methyl)-2-(3-fluoro-4-(2-hydroxyethyl)-phenyl)propanamide], for which the Ki was determined as 28.4 nM.

Consider `CC(C)(C)c1nc(-c2cccc(F)c2)c(CNC(=O)Nc2ccc(CNS(C)(=O)=O)cc2)s1` [EX-39, N-(4-(3-((2-(tert-butyl)-4-(3-fluorophenyl)thiazol-5-yl)methyl)ureido)benzyl)methanesulfonamide], for which the inhibition constant Ki worked out at 17.6 nM.

Consider `O=C(NCc1sc(C(F)(F)F)nc1-c1cccc(Cl)c1)Nc1ccc(N2CC(O)C2)nc1` [EX-33, 1-((4-(3-chlorophenyl)-2-(trifluoromethyl)thiazol-5-yl)methyl)-3-(6-(3-hydroxyazetidin-1-yl)pyridin-3-yl)urea], for which the Ki was found to be 24.6 nM.
